Test results taken from PubChem BioAssay AID2060333 (Molecular Pharmacology Branch, DTP, NCI, 2025).

Tested on: 845751-090-R-J2-PDC tumor spheroid viability
Test: Anticancer human tumor 845751-090-R-J2-PDC patient-derived head and neck squamous carcinoma cell line growth inhibition [IpAb]
Settings: spheroids with HUVEC and MSC; for IC50: curve of first compound; for viability, T/C: stronger effect = lower value
Method in brief: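 Multi-cell spheroids of 60% tumour cells, 25% HUVEC and 15% MSC in ultra-low-attachment U-bottom wells, treated with agents combined with ipatasertib or abemaciclib. Half-log ranges top out near clinical Cmax, or 10 microM when Cmax is unknown.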

[1] = second compound 0.1 µM, first compound 0.00316 µM
[2] = second compound 0.1 µM, first compound 0.01 µM
[3] = second compound 0.1 µM, first compound 0.0316 µM
[4] = second compound 0.1 µM, first compound 0.1 µM
[5] = second compound 0.1 µM, first compound 0.316 µM
[6] = second compound 0.1 µM, first compound 1 µM
[7] = second compound 0.316 µM, first compound 0.00316 µM
[8] = second compound 0.316 µM, first compound 0.01 µM
[9] = second compound 0.316 µM, first compound 0.0316 µM
[10] = second compound 0.316 µM, first compound 0.1 µM
[11] = second compound 0.316 µM, first compound 0.316 µM
[12] = second compound 0.316 µM, first compound 1 µM
[13] = second compound 1 µM, first compound 0.00316 µM
[14] = second compound 1 µM, first compound 0.01 µM
[15] = second compound 1 µM, first compound 0.0316 µM
[16] = second compound 1 µM, first compound 0.1 µM
[17] = second compound 1 µM, first compound 0.316 µM
[18] = second compound 1 µM, first compound 1 µM
[19] = second compound 3.16 µM, first compound 0.0316 µM
[20] = second compound 3.16 µM, first compound 0.1 µM
[21] = second compound 3.16 µM, first compound 0.316 µM
[22] = second compound 3.16 µM, first compound 1 µM
[23] = second compound 10 µM, first compound 0.0316 µM
[24] = second compound 10 µM, first compound 0.1 µM
[25] = second compound 10 µM, first compound 0.316 µM
[26] = second compound 10 µM, first compound 1 µM
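Also: spheroids exposed to compounds for 7 days before readout.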
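For viability, T/C in this document: CTG3D luminescence normalised so that 100% = DMSO vehicle control.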

SMILES | IC50 (second compound 0.1 µM) | IC50 (second compound 0.316 µM) | IC50 (second compound 1 µM) | viability, T/C [1] | viability, T/C [2] | viability, T/C [3] | viability, T/C [4] | viability, T/C [5] | viability, T/C [6] | viability, T/C [7] | viability, T/C [8] | viability, T/C [9] | viability, T/C [10] | viability, T/C [11] | viability, T/C [12] | viability, T/C [13] | viability, T/C [15] | viability, T/C [16] | viability, T/C [17] | viability, T/C [18] | further results
COc1c(OCCCN2CCOCC2)ccc2c3n(c(=NC(=O)c4cnc(N)nc4)nc12)CCN3 + CCN1CCN(Cc2ccc(Nc3ncc(F)c(-c4cc(F)c5nc(C)n(C(C)C)c5c4)n3)nc2)CC1 | 5.23 nM | 6.38 nM | 10.6 nM | 56.5% | 41.6% | 26.3% | 11.7% | 12.8% | 3.55% | 68.2% | 35.9% | 24.6% | 15.8% | 11.7% | 4.79% | 60% | 31.2% | 21.5% | 12.6% | 5.48% | IC50 (second compound 0.01 µM): 7.18 nM; IC50 (second compound 0.0316 µM): 4.99 nM; viability, T/C (second compound 0.01 µM, first compound 0.00316 µM): 63.3%; viability, T/C (second compound 0.01 µM, first compound 0.01 µM): 43.5%; viability, T/C (second compound 0.01 µM, first compound 0.0316 µM): 30.8%; viability, T/C (second compound 0.01 µM, first compound 0.1 µM): 13.7%; viability, T/C (second compound 0.01 µM, first compound 0.316 µM): 10.6%; viability, T/C (second compound 0.01 µM, first compound 1 µM): 4.54%; viability, T/C (second compound 0.0316 µM, first compound 0.00316 µM): 54%; viability, T/C (second compound 0.0316 µM, first compound 0.01 µM): 43.6%; viability, T/C (second compound 0.0316 µM, first compound 0.0316 µM): 28.3%; viability, T/C (second compound 0.0316 µM, first compound 0.1 µM): 11.9%; viability, T/C (second compound 0.0316 µM, first compound 0.316 µM): 8.73%; viability, T/C (second compound 0.0316 µM, first compound 1 µM): 3.86%; viability, T/C [14]: 54.1%
Cn1nccc1Nc1nccc(-c2ccn(C(CO)c3ccc(Cl)c(F)c3)c(=O)c2)n1 (stereo not given) + CC(C)NCC(C(=O)N1CCN(c2ncnc3c2C(C)CC3O)CC1)c1ccc(Cl)cc1 | 558 nM | < 31.6 nM | < 31.6 nM |  |  | 65.5% | 66.5% | 57.9% | 41.6% |  |  | 45.6% | 40.6% | 24.3% | 14.3% |  | 28.2% | 23.2% | 18% | 13.1% | IC50 (second compound 3.16 µM): < 31.6 nM; IC50 (second compound 10 µM): < 31.6 nM; viability, T/C (second compound 0.1 µM, first compound 3.16 µM): 44.1%; viability, T/C (second compound 0.1 µM, first compound 10 µM): 35.8%; viability, T/C (second compound 0.316 µM, first compound 3.16 µM): 16%; viability, T/C (second compound 0.316 µM, first compound 10 µM): 17.1%; viability, T/C (second compound 1 µM, first compound 3.16 µM): 9.8%; viability, T/C (second compound 1 µM, first compound 10 µM): 4.51%; viability, T/C [19]: 22.9%; viability, T/C [20]: 16.7%; viability, T/C [21]: 11.5%; viability, T/C [22]: 8.53%; viability, T/C (second compound 3.16 µM, first compound 3.16 µM): 4.72%; viability, T/C (second compound 3.16 µM, first compound 10 µM): 3.12%; viability, T/C [23]: 11.3%; viability, T/C [24]: 7.13%; viability, T/C [25]: 5.99%; viability, T/C [26]: 5.42%; viability, T/C (second compound 10 µM, first compound 3.16 µM): 3.44%; viability, T/C (second compound 10 µM, first compound 10 µM): 1.71%
COc1c(OCCCN2CCOCC2)ccc2c3n(c(=NC(=O)c4cnc(N)nc4)nc12)CCN3 + CC(C)NCC(C(=O)N1CCN(c2ncnc3c2C(C)CC3O)CC1)c1ccc(Cl)cc1 | 7.18 nM | < 3.16 nM | < 3.16 nM | 60.9% | 46.1% | 32.1% | 19.5% | 16.5% | 3.52% | 26.4% | 27.3% | 38.4% | 17% | 9.83% | 5.73% | 34.6% | 17.1% | 9.67% | 5.4% | 2.49% | IC50 (second compound 3.16 µM): < 3.16 nM; IC50 (second compound 10 µM): < 3.16 nM; viability, T/C [14]: 21.8%; viability, T/C (second compound 3.16 µM, first compound 0.00316 µM): 22.5%; viability, T/C (second compound 3.16 µM, first compound 0.01 µM): 21.9%; viability, T/C [19]: 17.7%; viability, T/C [20]: 7.76%; viability, T/C [21]: 3.93%; viability, T/C [22]: 2.76%; viability, T/C (second compound 10 µM, first compound 0.00316 µM): 17.4%; viability, T/C (second compound 10 µM, first compound 0.01 µM): 17.7%; viability, T/C [23]: 13.4%; viability, T/C [24]: 5.23%; viability, T/C [25]: 2.57%; viability, T/C [26]: 1.62%
